# Measurements published in US12060335B1, “2-(benzo[d]oxazol-2-yl)-N′-(3,5-dichlorobenzoyloxy)acetimidamide as an antimicrobial compound” (KING FAISAL UNIVERSITY, priority 2023, dated 2024).
# Columns and labels:
# Staphylococcus aureus = test: Agar plate disc-diffusion, antibacterial activity by measuring inhibition zone; format: cell-based; details: Gram positive, nutrient agar, 37° C., 48 hours
# Experimental: (§1) The agar plate disc-diffusion method was applied. […] The discs were then placed onto the surface of agar plates (nutrient agar for bacteria and Sabouraud's dextrose agar for fungi) seeded with the test organism. Each plate contained 15 mL of the agar medium, previously seeded with 0.2 mL of the broth culture of each organism pregrown for 18 hours. The plates were incubated at 37° C. for 48 hours, and 72 hours for fungi. The inhibition zones was measured in mm. Discs impregnated with DMSO were used as a control, and its inhibition zone was subtracted from the tested compound actual inhibition zone.
# Bacillus Cereus = test: as above; format: cell-based; details: Gram positive, nutrient agar, 37° C., 48 hours
# Experimental: as §1
# Pseudomonas aeruginosa = test: as above; format: cell-based; details: Gram negative, nutrient agar, 37° C., 48 hours
# Experimental: (§2) The agar plate disc-diffusion method was applied. Sterilized filter papers (6 mm in diameter) were wetted with 10 μL of a solution 2-(benzo[d]oxazol-2-yl)-N′-(3,5-dichlorobenzoyloxy)acetimidamide (3) to be tested, containing 10 mg/mL in DMSO, and the discs were allowed to air dry. The discs were then placed onto the surface of agar plates (nutrient agar for bacteria and Sabouraud's dextrose agar for fungi) seeded with the test organism. Each plate contained 15 mL of the agar medium, previously seeded with 0.2 mL of the broth culture of each organism pregrown for 18 hours. The plates were incubated at 37° C. for 48 hours, and 72 hours for fungi. The inhibition zones was measured in mm. Discs impregnated with DMSO were used as a control, and its inhibition zone was subtracted from the tested compound actual inhibition zone.
# Escherichia coli = test: as above; format: cell-based; details: Gram negative, nutrient agar, 37° C., 48 hours
# Experimental: as §2
# Aspergillus flavus = test: Agar plate disc-diffusion, antifungal activity by measuring inhibition zone; format: cell-based; details: Sabouraud's dextrose agar, 72 hours
# Experimental: as §1
# [1] = tested on: Chrysosporium keratinophilum; test: as above; format: cell-based; details: Sabouraud's dextrose agar, 72 hours
# Experimental: as §1
# different microbes = test: Antimicrobial activity screen, overall statement; format: cell-based; details: against different microbes (bacteria and fungi of Tables 1 and 2)
# Experimental: as §2
# [2] = A = concentration of comp. = 10,000 μL
# [3] = B = concentration of comp. = 30,000 μL
# [4] = C = concentration of comp. = 50,000 μL
SMILES,inhibition zone (Staphylococcus aureus; [2]),inhibition zone (Staphylococcus aureus; [3]),inhibition zone (Staphylococcus aureus; [4]),inhibition zone (Bacillus Cereus; [2]),inhibition zone (Bacillus Cereus; [3]),inhibition zone (Bacillus Cereus; C =),inhibition zone (Pseudomonas aeruginosa; [2]),inhibition zone (Pseudomonas aeruginosa; [3]),inhibition zone (Pseudomonas aeruginosa; C =),inhibition zone (Escherichia coli; [2]),inhibition zone (Escherichia coli; [3]),inhibition zone (Escherichia coli; [4]),inhibition zone (Aspergillus flavus; [2]),inhibition zone (Aspergillus flavus; [3]),inhibition zone (Aspergillus flavus; [4]),"inhibition zone [1, 2]","inhibition zone [1, 3]","inhibition zone [1, 4]",antimicrobial activities (different microbes),melting point
"O=C(O)c1cn(C2CC2)c2cc(N3CCNCC3)c(F)cc2c1=O [Cip., ciprofloxacin, reference compound]",43 mm,44 mm,53 mm,29 mm,30 mm,42 mm,29 mm,30 mm,53 mm,30 mm,39 mm,60 mm,29 mm,30 mm,42 mm,29 mm,30 mm,53 mm,–,–
"N/C(Cc1nc2ccccc2o1)=N\OC(=O)c1cc(Cl)cc(Cl)c1 [Compound 3, 2-(benzo[d]oxazol-2-yl)-N′-(3,5-dichlorobenzoyloxy)acetimidamide]",19 mm,21 mm,29 mm,20 mm,22 mm,30 mm,25 mm,27 mm,43 mm,26 mm,34 mm,46 mm,20 mm,22 mm,29 mm,27 mm,29 mm,49 mm,excellent antimicrobial activities,158 to 159 °C
